Experimental data reported in patent publication US8795650B2, “Derivation of unlimited quantities of neutrophils or monocyte/dendritic cells” (The Regents of the University of California, priority 2004, dated 2014).

System: SCF Hoxb8-ER progenitors
Conditions: SCF medium supplemented with the cytokine
From the text: Cells were photographed 6 days after differentiation was initiated by removal of estradiol. […] Distribution of mature cell types is indicated below each column, as measured at the end of the 6 day differentiation.

Row | Substance | progenitors maturing as macrophages (6 day differentiation) | expansion during differentiation (estradiol removed) | impact on neutrophil-committed differentiation
1 | GM-CSF | 16% | 830 fold | –
2 | Erythropoietin | – | – | no impact
